{
  "source": "patent US8252895B2",
  "about": "“Cyclic peptide compounds” (Astellas Pharma Inc., priority 2005, dated 2012)",
  "note": "Square brackets hold non-standard residues; d marks the D form. Peptide text beside a SMILES is read from it. * marks the point of attachment. ξ: configuration not given here. MeBmt = C/C=C/C[C@@H](C)[C@@H](O)[C@H](NC)C(=O)O; NMeIle(3ξ) = CCC(C)[C@H](NC)C(=O)O; NMeThr(3ξ) = CN[C@H](C(=O)O)C(C)O; NMePhg = CN[C@H](C(=O)O)c1ccccc1; NMeT = CN[C@H](C(=O)O)[C@@H](C)O; NMeL = CN[C@@H](CC(C)C)C(=O)O; dNMeAbu = CC[C@@H](NC)C(=O)O; NMeV = CN[C@H](C(=O)O)C(C)C; dNMeS = CN[C@H](CO)C(=O)O; dNMeA = CN[C@H](C)C(=O)O; Sar = CNCC(=O)O; tBu = CC(C)(C)*",
  "data": [
    {"system": "HCV", "settings": "K. Inoue et al., 6th International Symposium on Hepatitis C and Related Virus (2000); cited from earlier work", "values": [
      {"molecule": "Cyclosporin A", "anti-HCV activity": "anti-HCV activity"}
    ]},
    {"molecular_target": "HCV replicon", "assay_type": "cell-based, hepatitis C virus", "settings": "HCV replicon cells, luciferase activity two days after addition of compound, 50% of control (DMSO only)", "protocol": "It is thought that the replication mechanism of the subgenomic HCV RNA in these cell lines is extremely similar to the replication of full length HCV RNA genome in hepatic cells infected with HCV.\nThe inhibitory activity of the test compounds against the replication of HCV replicon was evaluated by quantified the activity of luciferase, a reporter gene product encoded in the replicon system reported by Yokota et al., EMBO 4: 602-608 (2003). The enzyme assay was carried out according to the technical manual of the Steady-Glo® luciferase assay system (Promega). The replicon assay was carried out with the modified method reported by Lohmann et al., Science 285: 110 (1999). The details are described in the following.\n6×10^3 HCV replicon cells in D-MEM medium containing 5% fetal bovine serum were seeded in each well of a 96-well microtiter plate (Corning Inc.). After the cells were incubated at 37° C. for 16 hours in 5% CO2, the test compound was added.\nAfter cultivation for two more days, the culture medium was removed and 25 μl of Glo Lysis buffer was added to each well and incubated for 5 minutes. Allowing lysis to occur, 25 μl of Steady-Glo® assay reagent was added to each well. After incubation for 5 minutes, the luminescence was measured with a luminometer, Mithras LB940 (BERTHOLD TECHNOLOGIES GmbH & Co.KG) following the manufacturer's instructions.\nThe luciferase activities in replicon cells treated at each concentrations of the compound were employed for the calculation of EC50 value of the each compound, which gave the compound concentration indicating 50% enzyme activity level to the control (no drug group, containing only DMSO).", "units": {"HCV replicon replication inhibitory activity: EC50": "µg/mL"}, "values": [
      {"molecule": "C/C=C/C[C@@H](C)[C@@H](O)[C@H]1C(=O)N[C@@H]([C@@H](C)O)C(=O)N(C)[C@H](C)C(=O)N(C)[C@@H](c2ccccc2)C(=O)N[C@@H](CC(C)C)C(=O)N(C)[C@@H](CC(C)C)C(=O)N[C@@H](C)C(=O)N[C@H](C)C(=O)N(C)[C@@H](CC(C)C)C(=O)N[C@@H](CC(C)C)C(=O)N(C)[C@@H](C(C)C)C(=O)N1C", "note": "[Example 15] (cyclo(A[dA][NMeL]L[NMeV][MeBmt]T[dNMeA][NMePhg]L[NMeL]))", "HCV replicon replication inhibitory activity: EC50": "<0.5"},
      {"molecule": "C/C=C/C[C@@H](C)[C@@H](O)[C@H]1C(=O)N[C@@H]([C@@H](C)O)C(=O)N(C)[C@H](C)C(=O)N(C)[C@@H]([C@@H](C)OC)C(=O)N[C@@H](CC(C)C)C(=O)N(C)[C@@H](CC(C)C)C(=O)N[C@@H](C)C(=O)N[C@H](C)C(=O)N(C)[C@@H](CC(C)C)C(=O)N[C@@H](CC(C)C)C(=O)N(C)[C@@H](C(C)C)C(=O)N1C", "note": "[Example 32] (cyclo(A[dA][NMeL]L[NMeV][MeBmt]T[dNMeA][NMeT](Me)L[NMeL]))", "HCV replicon replication inhibitory activity: EC50": "<0.5"},
      {"molecule": "C/C=C/C[C@@H](C)[C@@H](O)[C@H]1C(=O)N[C@@H]([C@@H](C)O)C(=O)N(C)[C@H](C)C(=O)N(C)[C@@H](C(C)O)C(=O)N[C@@H](CC(C)C)C(=O)N(C)[C@@H](CC(C)C)C(=O)N[C@@H](C)C(=O)N[C@H](C)C(=O)N(C)[C@@H](CC(C)C)C(=O)N[C@@H](CC(C)C)C(=O)N(C)[C@@H](C(C)C)C(=O)N1C", "note": "(stereo partly drawn) [Example 12, (3R,6S,9S,12S,15S,18S,21R,24S,27S,30S,33S)-6-[(1R)-1-hydroxyethyl]-33-(1-hydroxyethyl)-9-[(1R,2R,4E)-1-hydroxy-2-methyl-4-hexen-1-yl]-15,18,27,30-tetraisobutyl-12-isopropyl-1,3,4,10,13,19,21,24,28-nonamethyl-1,4,7,10,13,16,19,22,25,28,31-undecaazacyclotritriacontane-2,5,8,11,14,17,20,23,26,29,32-undecone] (cyclo(A[dA][NMeL]L[NMeV][MeBmt]T[dNMeA][NMeThr(3ξ)]L[NMeL]))", "HCV replicon replication inhibitory activity: EC50": "<0.5"},
      {"molecule": "C/C=C/C[C@@H](C)[C@@H](O)[C@H]1C(=O)N[C@@H]([C@@H](C)O)C(=O)N(C)[C@H](COC)C(=O)N(C)[C@@H]([C@@H](C)OC)C(=O)N[C@@H](CC(C)C)C(=O)N(C)[C@@H](CC(C)C)C(=O)N[C@@H](C)C(=O)N[C@H](C)C(=O)N(C)[C@@H](CC(C)C)C(=O)N[C@@H](CC(C)C)C(=O)N(C)[C@@H](C(C)C)C(=O)N1C", "note": "[Example 9] (cyclo(A[dA][NMeL]L[NMeV][MeBmt]T[dNMeS](Me)[NMeT](Me)L[NMeL]))", "HCV replicon replication inhibitory activity: EC50": "<0.5"},
      {"molecule": "C/C=C/C[C@@H](C)[C@@H](O)[C@H]1C(=O)N[C@@H]([C@@H](C)O)C(=O)N(C)[C@H](CC)C(=O)N(C)[C@@H]([C@@H](C)OC)C(=O)N[C@@H](CC(C)C)C(=O)N(C)[C@@H](CC(C)C)C(=O)N[C@@H](C)C(=O)N[C@H](C)C(=O)N(C)[C@@H](CC(C)C)C(=O)N[C@@H](CC(C)C)C(=O)N(C)[C@@H](C(C)C)C(=O)N1C", "note": "[Example 16] (cyclo(A[dA][NMeL]L[NMeV][MeBmt]T[dNMeAbu][NMeT](Me)L[NMeL]))", "HCV replicon replication inhibitory activity: EC50": "<0.5"},
      {"molecule": "C/C=C/C[C@@H](C)[C@@H](O)[C@H]1C(=O)N[C@@H]([C@@H](C)O)C(=O)N(C)CC(=O)N(C)[C@@H](C(C)OC(C)(C)C)C(=O)N[C@@H](CC(C)C)C(=O)N(C)[C@@H](CC(C)C)C(=O)N[C@@H](C)C(=O)N[C@H](C)C(=O)N(C)[C@@H](CC(C)C)C(=O)N[C@@H](CC(C)C)C(=O)N(C)[C@@H](C(C)C)C(=O)N1C", "note": "(stereo partly drawn) [Example 52, (3S,6S,9S,12R,15S,18S,21S,24S,30S,33S)-24-(1-tert-butoxyethyl)-30-[(1R)-1-hydroxyethyl]-33-[(1R,2R,4E)-1-hydroxy-2-methyl-4-hexen-1-yl]-6,9,18,21-tetraisobutyl-3-isopropyl-1,4,10,12,15,19,25,28-octamethyl-1,4,7,10,13,16,19,22,25,28,31-undecaazacyclotritriacontane-2,5,8,11,14,17,20,23,26,29,32-undecone] (cyclo(A[dA][NMeL]L[NMeV][MeBmt]T[Sar][NMeThr(3ξ)](tBu)L[NMeL]))", "HCV replicon replication inhibitory activity: EC50": "<0.5"},
      {"molecule": "C/C=C/C[C@@H](C)[C@@H](O)[C@H]1C(=O)N[C@@H]([C@@H](C)O)C(=O)N(C)[C@H](C)C(=O)N(C)[C@@H](C(C)CC)C(=O)N[C@@H](CC(C)C)C(=O)N(C)[C@@H](CC(C)C)C(=O)N[C@@H](C)C(=O)N[C@H](C)C(=O)N(C)[C@@H](CC(C)C)C(=O)N[C@@H](CC(C)C)C(=O)N(C)[C@@H](C(C)C)C(=O)N1C", "note": "(stereo partly drawn) [Example 14, (3R,6S,9S,12S,15S,18S,21R,24S,27S,30S,33S)-33-sec-butyl-6-[(1R)-1-hydroxyethyl]-9-[(1R,2R,4E)-1-hydroxy-2-methyl-4-hexen-1-yl]-15,18,27,30-tetraisobutyl-12-isopropyl-1,3,4,10,13,19,21,24,28-nonamethyl-1,4,7,10,13,16,19,22,25,28,31-undecaazacyclotritriacontane-2,5,8,11,14,17,20,23,26,29,32-undecone] (cyclo(A[dA][NMeL]L[NMeV][MeBmt]T[dNMeA][NMeIle(3ξ)]L[NMeL]))", "HCV replicon replication inhibitory activity: EC50": "<0.5"},
      {"molecule": "C/C=C/C[C@@H](C)[C@@H](O)[C@H]1C(=O)N[C@@H]([C@@H](C)O)C(=O)N(C)[C@H](C)C(=O)N(C)[C@@H](C(C)OC(C)(C)C)C(=O)N[C@@H](CC(C)C)C(=O)N(C)[C@@H](CC(C)C)C(=O)N[C@@H](C)C(=O)N[C@H](C)C(=O)N(C)[C@@H](CC(C)C)C(=O)N[C@@H](CC(C)C)C(=O)N(C)[C@@H](C(C)C)C(=O)N1C", "note": "(stereo partly drawn) [Example 25, (3R,6S,9S,12S,15S,18S,21R,24S,27S,30S,33S)-33-(1-tert-butoxyethyl)-6-[(1R)-1-hydroxyethyl]-9-[(1R,2R,4E)-1-hydroxy-2-methyl-4-hexen-1-yl]-15,18,27,30-tetraisobutyl-12-isopropyl-1,3,4,10,13,19,21,24,28-nonamethyl-1,4,7,10,13,16,19,22,25,28,31-undecaazacyclotritriacontane-2,5,8,11,14,17,20,23,26,29,32-undecone] (cyclo(A[dA][NMeL]L[NMeV][MeBmt]T[dNMeA][NMeThr(3ξ)](tBu)L[NMeL]))", "HCV replicon replication inhibitory activity: EC50": "<0.5"}
    ]},
    {"system": "Human Immunodeficiency Virus Type 1 (HIV-1)", "settings": "M. Thali et al., Nature 372, 363-365 (1994); cited from earlier work", "values": [
      {"molecule": "Cyclosporin A", "anti-HIV activity": "anti-HIV activity"}
    ]}
  ]
}
